Reference: PubChem BioAssay AID489035 (Sanford-Burnham Center for Chemical Genomics, 2010)
Active and inactive are the calls of the source. The rule behind the calls is not given here.

System: Jurkat NF-kB reporter, TCR-induced, luciferase luminescence
Test: inhibitors of TCR-driven NF-kB activation, dose response, Jurkat cells, luminescence (AID 489035)

Compound	IC50
COc1ccc2c(c1)C(=O)N1[C@H]3c4cc(Br)ccc4OC[C@@H]3[C@H](c3ccccc3)[C@]1(C)C(=O)N2	> 80 µM (inactive)
Cc1ccc(-c2cc3c(N=O)c4ccccc4c-3n[nH]2)cc1	1.65 µM
C[C@@H]1C=CC(=O)O[C@@H]1c1ccc(Cl)cc1	0.38 µM
Cc1oc(-c2ccc(Cl)cc2)nc1CS(=O)CC(=O)NCCCN1CCN(Cc2ccccc2)CC1 (stereo unspecified)	26.4 µM (inactive)
CCOC(=O)c1[nH]c(C)c(C(=O)Nc2cc(OC)ccc2OC)c1C	> 80 µM (inactive)
COc1ccccc1NC(=O)Cn1nnc(C(=O)NCc2cccs2)c1N	> 80 µM (inactive)
CCCCCc1ccc(OCCCC[n+]2ccc(C)cc2)c(CCCCC)c1	8.23 µM
CCCC(=O)NC(c1ccc(OC)cc1)c1ccc2cccnc2c1O (stereo unspecified)	2.83 µM
CCN(CC)S(=O)(=O)c1ccc(NC(=O)c2ccc(CN3CCOCC3)cc2)cc1	> 80 µM (inactive)
COc1ccc(Nc2ncnc3ccc(Br)cc23)c(OC)c1	22 µM (inactive)
COc1ccc(C(NC(=O)C(C)C)c2ccc3cccnc3c2O)cc1 (stereo unspecified)	5.96 µM
COc1ccc(OC)c(-c2nnc3n2N=C(c2ccc(OC)c(OC)c2)CS3)c1	9.88 µM
COc1ccc(C)cc1NS(=O)(=O)c1ccc(-c2cnc(C3CC3)o2)cc1	> 80 µM (inactive)
COc1cc(-c2noc(C)c2-c2ccc3[nH]ccc3c2)cc(OC)c1OC	25.3 µM (inactive)
CCCCCCCCn1c2c(c(=N)c3ccccc31)CCC2	3.43 µM
C[C@@H]1O[C@@H](O[C@H]2C[C@@H](O)[C@]3(CO)[C@H]4[C@H](O)C[C@]5(C)[C@@H](C6COC(=O)C6)CC[C@]5(O)[C@@H]4CC[C@]3(O)C2)[C@H](O)[C@H](O)[C@H]1O (stereo partly specified)	> 80 µM (inactive)
Cc1ccc(S(=O)(=O)/N=C2\C=C(Nc3ccc(O)cc3)C(=O)c3ccccc32)cc1	0.62 µM
Cc1ccc(C)c(CSc2nc3[nH]ncc3c(=O)[nH]2)c1	39.2 µM (inactive)
Oc1ccc(Nc2nc3ccccc3nc2Nc2ccc(O)cc2)cc1	2.09 µM
COc1cc(C2C(C#N)=C(N)Oc3cc4c(cc32)OCO4)cc(OC)c1OC (stereo unspecified)	34.1 µM (inactive)
CCc1ccc(S(=O)(=O)/N=C2\C=C(Nc3ccc(O)cc3)C(=O)c3ccccc32)cc1	2.58 µM
COc1cccc(/C=N/Nc2ccc(C(=O)O)cc2)c1O	0.28 µM
CC1=C([N+](=O)[O-])C(c2ccccc2)C2=C(N1)c1ccccc1C2=O (stereo unspecified)	30.3 µM (inactive)
CCOc1ccccc1C1CC(=O)Nc2cc(C)c(C)cc21 (stereo unspecified)	> 80 µM (inactive)

Compound	IC50
CC(=O)O[C@H]1C(=O)[C@]2(C)[C@H]([C@H](OC(=O)c3ccccc3)[C@]3(O)C[C@H](OC(=O)[C@H](O)[C@@H](NC(=O)c4ccccc4)c4ccccc4)C(C)=C1C3(C)C)[C@]1(OC(C)=O)CO[C@@H]1C[C@@H]2O	0.51 µM
COc1ccc(OC)c(CCNC(=O)Cn2nc(C)c3c(C)n(-c4ccc(C)cc4)nc3c2=O)c1	7.63 µM
CC(=O)Nc1ccc(S(=O)(=O)N2c3ccc(F)cc3CCC2C)cc1 (stereo unspecified)	7.46 µM
CCOC(=O)N/N=C/c1c(C)nn(-c2cccc(C(F)(F)F)c2)c1Cl	> 80 µM (inactive)
COC(=O)Nc1ccc(S(=O)(=O)N2c3ccccc3CCC2C)cc1 (stereo unspecified)	26.6 µM (inactive)
COc1ccc(NC(=O)/C(Cl)=C(/Cl)S(=O)Cc2ccc(C)cc2)cn1 (stereo unspecified)	0.32 µM
CC(Nc1ncnc2ccccc12)c1ccccc1 (stereo unspecified)	> 80 µM (inactive)
CCCCC(=O)NC(c1ccc(Cl)cc1Cl)c1ccc2cccnc2c1O (stereo unspecified)	9.87 µM
CC(C)Cn1c(N)c(C(=O)CSc2ccc3c(c2)OCCO3)c(=O)n(C)c1=O	< 0.16 µM
COc1ccccc1C(=O)N(CCC1CCCN1C)c1nc2ccccc2s1 (stereo unspecified)	45.7 µM (inactive)
Cn1nc(C(C)(C)C)cc1C(=O)NCc1cc(F)cc2c1OCOC2	> 80 µM (inactive)
COc1cc2c(c(OC)c1OC)-c1ccc(O)cc1[C@@H](NC(C)=O)CC2	> 80 µM (inactive)
CCOC(=O)c1ccccc1NC(=O)Cn1c(-c2nonc2N)nc2ccccc21	> 80 µM (inactive)
COc1ccc(/C=c2/sc3n(c2=O)C(c2ccccc2OC)C2=C(N=3)c3ccccc3CC2)cc1O (stereo unspecified)	22.6 µM (inactive)
Cn1cc(C(=O)N/N=C/c2c(O)ccc3ccccc23)ccc1=O	1.89 µM
CSC1=NC(C(Cl)(Cl)Cl)N=C(c2ccc(C)cc2)N1 (stereo unspecified)	> 80 µM (inactive)
O=C(Nc1cccc(C(F)(F)F)c1)c1sc(Cl)nc1C(F)(F)F	0.59 µM
O=C(Nc1ccc(S(=O)(=O)N2CCN(Cc3ccccc3)CC2)cc1)c1cnccn1	> 80 µM (inactive)
CCN(CC)c1ccc(-c2nn3c(-c4n[nH]c5c4CCC5)nnc3s2)cc1	47.1 µM (inactive)
CCOC(=O)c1[nH]c(C)c(C(=O)Nc2cc(Cl)ccc2C)c1C	> 80 µM (inactive)
COc1ccc(-c2csc(NC(=O)C3CCN(c4ncnc5sc(C)c(C)c45)CC3)n2)cc1OC	> 80 µM (inactive)
O=C(COc1ccccc1-c1ccccc1)N/N=C/c1cccc2ccccc12	< 0.16 µM
O=C(COc1ccc2c(-c3ccccc3)cc(=O)oc2c1)Nc1cccnc1	> 80 µM (inactive)
Cc1ccc(NS(=O)(=O)c2ccc(C(=O)NC3CCN(Cc4ccccc4)CC3)cc2)cc1	19.8 µM

Compound	IC50
Cc1ccc(C(=O)c2cc([N+](=O)[O-])ccc2N2CCOCC2)cc1C	19.6 µM
O=C(N=Nc1c(O)[nH]c2ccc(Br)cc12)c1ccccc1-n1cccc1	50.2 µM (inactive)
CC1(C)CC(N2CCN(C(c3ccccc3)c3ccccc3)CC2)=CC(=[N+]2CCCCC2)C1	15.9 µM
Cc1ccccc1NS(=O)(=O)c1ccc(N2CCCC2=O)cc1	71.8 µM (inactive)
c1ccc(-c2noc(-c3ccc4c(c3)OCO4)n2)nc1	0.55 µM
N#Cc1ccc(-c2cccs2)nc1SCc1cccnc1	> 80 µM (inactive)
Cc1ccc2[nH]c(-c3cccc(F)c3)cc(=O)c2c1	> 80 µM (inactive)
CC(C)(C)c1ccc(C(=O)O/N=C(\N)c2ccccc2)cc1	2.31 µM
O=C(Nc1ccncc1)c1ccc(Cl)c(S(=O)(=O)N2CCc3ccccc32)c1	> 80 µM (inactive)
CCCCCCCCC[n+]1cccc2c3ccccc3ccc21	8.65 µM
O=C(NN=Cc1c(O)ccc2ccccc12)c1ccc2c(c1)OCO2	26.6 µM (inactive)
CCOC(=O)C(C)Oc1cccc2c(=O)n(CC(=O)NCc3ccco3)ccc12 (stereo unspecified)	> 80 µM (inactive)
Cc1ccc2nc(C)c(CN3CCN(c4ccc([N+](=O)[O-])cc4Cl)CC3)n2c1	26.6 µM (inactive)
O=C(Nc1ccncc1)C1CCCN(S(=O)(=O)c2cccc3cccnc23)C1 (stereo unspecified)	> 80 µM (inactive)
Cc1c(C)c2ccc(OCC(=O)Nc3ccccn3)c(C)c2oc1=O	0.39 µM
CCOc1ccc2c(c1)sc(N)[n+]2Cc1cc(C)cc2cccnc12	7.8 µM
COc1cccc(CN(C)C(=O)c2ccc(OCC(=O)Nc3cccc(C(F)(F)F)c3)c(OC)c2)c1	40.5 µM (inactive)
COc1ccc(N/N=C/c2c(C(=O)O)ccc3ccccc23)cc1	16.4 µM
CC(C)Oc1ccccc1C1CC(=O)Nc2cc3c(cc21)OCO3 (stereo unspecified)	> 80 µM (inactive)
CCCCCN1C=CC(=C2C(=O)c3ccccc3C2=O)C=C1	0.37 µM
COc1ccc(CCNc2nnc(Sc3nnnn3-c3ccccc3)s2)cc1OC	10.6 µM
O=C1CC(c2cc(Br)ccc2F)c2cc3c(cc2N1)CCC3 (stereo unspecified)	15.6 µM
COc1cccc(/C=N/Nc2ncnc3scc(-c4ccccc4)c23)c1O	1.26 µM
O=S(=O)(c1ccc2c(c1)OCCO2)N1CCN(c2ncnc3sccc23)CC1	> 80 µM (inactive)

Compound	IC50
C=C(C)[C@@]12OC3(c4ccccc4)O[C@@H]1C1[C@@H]4O[C@]4(CO)[C@@H](O)[C@]4(O)C(=O)C(C)=C[C@H]4[C@@]1(O3)[C@H](C)[C@H]2OC(=O)/C=C/C=C/c1ccccc1 (stereo partly specified)	27.9 µM (inactive)
O=C(c1ccccc1)c1nn(-c2ccc(Cl)cc2)c(=O)cc1C(F)(F)F	1.25 µM
CCCCCCCCCCn1c2c(c(=N)c3c1CCC3)CCC2	5.17 µM
COc1cccc(OC)c1C1=NCC(=O)Nc2c1oc1ccc(Br)cc21	> 80 µM (inactive)
CN(C)c1ccc(-[n+]2c(-c3ccccc3)cc(-c3ccccc3)cc2-c2ccccc2)cc1	7.96 µM
CC(=O)c1ccc(N2CCN(S(=O)(=O)c3ccc4c(c3)CC(C)N4C(=O)C3CC3)CC2)cc1 (stereo unspecified)	> 80 µM (inactive)
CCCN(CCC)C1=CC(=[N+]2CCCC2)CC(C)(C)C1	> 80 µM (inactive)
Cc1ccc(C(=O)N/N=C/c2ccc([N+](=O)[O-])s2)cc1	1.26 µM
CC(=O)NC(c1ccc2ccccc2c1)c1ccc2cccnc2c1O (stereo unspecified)	7.22 µM
COc1ccc(Nc2cc(C)nc(-n3nc(C)cc3C)n2)cc1	> 80 µM (inactive)
CCOC(=O)c1ccc2nc(Nc3nc4ccc(F)cc4s3)sc2c1	75.4 µM (inactive)
Cc1cccc(N(C)S(=O)(=O)c2ccc(-c3cnc(C4CC4)o3)cc2)c1	23.8 µM (inactive)
c1cc2c(cc1C1=NNC(=NC3CC3)SC1)OCCO2	0.26 µM
COc1ccc(C(=O)N2CCN(c3ccc([N+](=O)[O-])c(NCCc4ccc(OC)c(OC)c4)c3)CC2)cc1	> 80 µM (inactive)
O=C(Nc1ccc(S(=O)(=O)Nc2ccc(F)cc2)cc1)c1ccc(CN2CCOCC2)cc1	40.8 µM (inactive)
COc1ccc(NC(=O)/C(Cl)=C(/Cl)S(=O)Cc2ccccc2Cl)cn1 (stereo unspecified)	0.64 µM
COc1ccc(CCNc2cc(N3CCN(C(=O)c4ccccc4F)CC3)ccc2[N+](=O)[O-])cc1OC	> 80 µM (inactive)
COc1ccccc1N1CCN(C(=O)c2ccc(-c3ccc(Cl)cc3)o2)CC1	34.6 µM (inactive)
Nc1ncn([C@@H]2O[C@H](CO)[C@@H](O)[C@H]2O)c(=O)n1	10.8 µM
CCCCCCCCCn1c2c(c(=N)c3c1CCC3)CCC2	7.67 µM
COC(=O)[C@]12OC[C@]34C([C@@H](O)[C@@H]1O)[C@]1(C)CC(=O)C(O)=C(C)[C@@H]1C[C@H]3OC(=O)[C@H](O)[C@@H]24 (stereo partly specified)	< 0.16 µM
CN(C)S(=O)(=O)c1ccc(Nc2nc(C3CC3)nc3c2nnn3Cc2ccccc2Cl)cc1	> 80 µM (inactive)
CCN(CC)c1ccc(-c2nn3c(-c4ccccc4OC)nnc3s2)cc1	20.4 µM (inactive)
CC1Cc2cc(-c3csc(NC(=O)Cc4cccs4)n3)ccc2N1S(C)(=O)=O (stereo unspecified)	5.4 µM
